Data reported in patent US10183020B2 (AstraZeneca AB, priority 2014, dated 2019).

What was measured:
wild-type EGFR lines = settings: in vitro, compared with mutant cell lines; cited from earlier work
[1] = Solubility of AZD9291 in simulated gastric fluid, human intestinal fluid and at intestinal pH
Description: (§1) In such cases, where the solubility of a drug varies with pH, and particularly when the solubility is highest at acidic pH, there is a problem that the drug may precipitate from solution as it passes through the gastrointestinal tract. Drugs need to be in solution in order to be absorbed, so such precipitation can lead to variability in the extent and/or rate of absorption of the drug. […] In principle, the dose administered to a patient could be increased to account for potentially poor absorption, but this approach introduces a risk that too much of the drug may enter the patient's system in some cases—which may be a safety risk and/or increase the risk/severity of side-effects. […] Accordingly, there remained a problem to provide an improved way of dosing the Agent to patients that should reduce/avoid the risk of and/or severity of the above-mentioned problems of inter-patient variability of absorption and/or inter-dose variability of absorption.

[2] = tested on: EGFRm+ and T790M mutant tumour xenograft and transgenic models; settings: doses as low as 5 mg/kg/day; cited from earlier work
Permeability = format: in vitro ADME
Description: as §1

[3] = tested on: advanced EGFRm T790M+ lung adenocarcinoma; test: Phase 1 clinical trial; format: in vivo, human; settings: a number of patients; Agent in the form of the mesylate salt
Description: Further details of this ‘blend in capsule’ formulation are described hereinafter as ‘Comparative Example 1’.

[4] = tested on: EGFRm+ and T790M mutant cell lines; settings: in vitro; cited from earlier work
[5] = tested on: EGFRm+ sensitising and the T790M resistance mutant forms of EGFR; settings: cited from earlier work
[6] = Stability of solution (precipitation); format: physicochemical; settings: solution once formed

Compound | activity against wild-type EGFR lines (wild-type EGFR lines) | pH dependent solubility [1] | tumor regression [2] | permeability (Permeability) | clinical response [3] | inhibition of EGFR signaling pathways and cellular growth [4] | inhibition of EGFRm+ sensitising and T790M resistance mutant forms of EGFR [5] | period over which solution is stable without precipitation [6] | solubility at intestinal pH compared with AZD9291 in free base form ([1]; intestinal pH)
C=CC(=O)Nc1cc(Nc2nccc(-c3cn(C)c4ccccc34)n2)c(OC)cc1N(C)CCN(C)C [AZD9291, N-(2-{2-dimethylaminoethyl-methylamino}-4-methoxy-5-{[4-(1-methylindol-3-yl)pyrimidin-2-yl]amino}phenyl)prop-2-enamide] | much less activity | significant pH dependent solubility | profound and sustained tumor regression | moderate permeability | partial responses | potently inhibits | potent inhibitor | – | –
AZD9291 mesylate | – | – | – | – | – | – | – | at least 24 hours | significantly higher
